How the values were obtained:
[1] = test system: Cav-1; assay: Western blot of tumor tissues, Cav-1; format: in vivo, mice; conditions: high dose dLGG (25 mg/kg), Dox5, Dox5+dLGG5
Method: (§1) The therapeutic effects of dLGG or dLGG-enriched CR-API fractions from C. rabens against TNBC were evaluated using an orthotopic tumor model. Briefly, mice were subcutaneously injected with 4T1 (murine TNBC) cells (5×10^6 cells per 100 μl PBS and 50 μl matrigel per mouse) into the fourth mammary fat pad under isoflurane anaesthesia. Tumor growth and body weight are monitored daily. After tumors grow to an approximate size of 150 mm^3 at day 7 post implantation, test mice are randomized into different groups (8 mice per group) and subjected to a three-week compound treatment scheme (FIG. 2). […] Dosage and frequency of doxorubicin treatment is based on maximum tolerable dose determined from in house toxicity experiments within the concentration range commonly used in animal studies (Bao L, Haque A, Jackson K, et al. (2011) Increased Expression of P-Glycoprotein Is Associated with Doxorubicin Chemoresistance in the Metastatic 4T1 Breast Cancer Model. The American Journal of Pathology. 2011; 178 (2):838-852). Effects of drug/compound/extracts are evaluated thrice a week by monitoring tumor size and body weight. Euthanasia by cervical dislocation are performed at day 30 post tumor implantation. […]

[2] = test system: TNBC metastatic tumor nodules in lung; assay: Distal metastasis to the lungs (H&E, Ki-67 IHC); format: in vivo, mice; conditions: for tumor metastasis nodules in the lung tissues: day 30, all dose groups (dLGG5, dLGG25, CR-API200, CR-API400, Dox5, Dox5+dLGG5) vs tumor control
Method: (§2) The therapeutic effects of dLGG or dLGG-enriched CR-API fractions from C. rabens against TNBC were evaluated using an orthotopic tumor model. Briefly, mice were subcutaneously injected with 4T1 (murine TNBC) cells (5×10^6 cells per 100 μl PBS and 50 μl matrigel per mouse) into the fourth mammary fat pad under isoflurane anaesthesia. Tumor growth and body weight are monitored daily. After tumors grow to an approximate size of 150 mm^3 at day 7 post implantation, test mice are randomized into different groups (8 mice per group) and subjected to a three-week compound treatment scheme (FIG. 2). […] Dosage and frequency of doxorubicin treatment is based on maximum tolerable dose determined from in house toxicity experiments within the concentration range commonly used in animal studies (Bao L, Haque A, Jackson K, et al. (2011) Increased Expression of P-Glycoprotein Is Associated with Doxorubicin Chemoresistance in the Metastatic 4T1 Breast Cancer Model. The American Journal of Pathology. 2011; 178 (2):838-852). Effects of drug/compound/extracts are evaluated thrice a week by monitoring tumor size and body weight. Euthanasia by cervical dislocation are performed at day 30 post tumor implantation. Tumors, organ tissues (lungs, liver, kidneys, spleen) and serum were immediately collected and allocated either for western blotting (immediately flash frozen using N2 and stored at −80° C.) or for paraffin fixation (immediately soaked in 10% formalin solution for at least one week). Paraffin-embedded tissues were stored at room temperature.
(§3) Tumor and organ tissues were fixed in 10% buffered formalin and embedded in paraffin. Paraffin-embedded samples were sectioned (6 μm) and underwent hemotoxylin and eosin (H&E) or immunohistochemical (IHC) staining. Paraffin-embedded tissue sections were heat immobilized and deparaffinized using xylene and rehydrated in a graded series of ethanol with a final wash in distilled water. For antigen retrieval, citrate retrieval buffer and Decloaking Chamber (Biocare Medical) were used. Images were captured using AxioVision software (Carl Zeiss MicroImaging, Inc.).

[3] = test system: Src (p-Src^419); assay: Western blot of tumor tissues, Src activation; format: in vivo, mice; conditions: all dLGG and CR-API treatments, Dox5+dLGG5, Dox5
Method: as §1

[4] = test system: cleaved caspase-3; assay: IHC of cleaved caspase-3 in tumor tissues; format: in vivo, mice; conditions: for caspase-3 expression compared with the low dose treatments and the Dox5+dLGG5 combination: day 30, Dox 5 mg/kg i.v., CR-API 400 mg/kg, dLGG 25 mg/kg daily o.p.; for cleaved caspase-3 expression in tumor tissues compared with the vehicle control: day 30, all treatment groups
Method: as §2, §3

[5] = test system: COX-2; assay: IHC of COX-2 in liver and lung tissues; format: in vivo, mice; conditions: day 30, dLGG 5 and 25, CR-API 200 and 400 mg/kg daily o.p., Dox 5 mg/kg every 3 days i.v., Dox5+dLGG5
Method: as §1

[6] = test system: Rac1; assay: Western blot of tumor tissues, Rac1; format: in vivo, mice; conditions: high dose dLGG (25 mg/kg), Dox5, Dox5+dLGG5
Method: as §1

[7] = Body weight of tumor-implanted mice; format: in vivo
Method: as §1

[8] = test system: TNBC metastatic tumor nodules in liver; assay: Distal metastasis to the liver (H&E, Ki-67 IHC); format: in vivo, mice; conditions: day 30; all dose groups (dLGG5, dLGG25, CR-API200, CR-API400, Dox5, Dox5+dLGG5) vs tumor control
Method: as §1

[9] = test system: FAK; assay: Western blot of tumor tissues, FAK phosphorylation; format: in vivo, mice; conditions: high dose dLGG (25 mg/kg), high dose CR-API (400 mg/kg), Dox5, Dox5+dLGG5
Method: as §1

[10] = test system: 4T1 (murine TNBC) orthotopic tumor; assay: 4T1 orthotopic breast cancer model: tumor growth and survival; format: in vivo, mice; conditions: for tumor volume compared with the tumor control: Dox 5 mg/kg every 3 days i.v. (P<0.0001), Dox5+dLGG5 (P=0.0015), dLGG 25 mg/kg daily o.p. (P=0.0015); for reduced tumor volumes compared with the tumor control group: endpoint day 30
Method: Female BALB/cByJNar1 mice (4-week-old) were supplied from National Laboratory Animal Center, Taipei, Taiwan and given a standard laboratory diet and distilled water ad libitum and kept on a 12-h light/dark cycle at 22±2° C. This study was conducted according to the institutional guidelines and approved by the Institutional Animal Care and Utilization Committee (IACUC) of Academia Sinica, Taiwan.
as §2

[11] = test system: CYP2C19; assay: Western blot of tumor tissues, CYP2C19; format: in vivo, mice; conditions: all dLGG and CR-API groups, Dox5+dLGG5 compared with Dox5 alone
Method: as §1

[12] = test system: MCF10A (normal mammary epithelial cells); assay: MTT cell viability assay, MCF10A; format: cell-based, human; conditions: 24 h treatment
Method: (§4) Immortalized normal human mammary epithelial cells (MCF10A) and breast cancer cell lines including HER2+ (SKBR3), ER+ (MCF7), triple negative (MDA-MB-231), and murine TNBC cell line 4T1 were obtained from the ATCC (USA). Cells were expanded and frozen at low passage after the receipt of the original stocks. Cells were thawed and used within 15 passages.
(§5) Cells (3×10^3 cells/well) were seeded in 96-well plates overnight and treated for 24 hours. Cell growth was determined by MTT-based colorimetric assay. Viability of the cells treated with vehicle-only (0.5% DMSO) was defined as 100% viability. Cell survival after compound treatment was calculated using the following formula: viable cell number (%)=[OD570 (treated cells)/OD570 (vehicle control)]×100.

[13] = molecular target: Ki67; assay: IHC of Ki67 in tumor tissues; format: in vivo, mice; conditions: day 30, dLGG and CR-API regardless of dose, Dox5, Dox5+dLGG5, vs tumor control
Method: as §1

[14] = test system: MCF7 (ER+ breast cancer cells); assay: MTT cell viability assay, MCF7; format: cell-based; conditions: Homo sapiens; MCF7, 24 hours, tested concentration range 5-100 μM
Method: as §4, §5

[15] = test system: COX-2; assay: Western blot of tumor tissues, COX-2; format: in vivo, mice; conditions: all dLGG and CR-API groups, Dox5+dLGG5 compared with Dox5 alone
Method: as §1

[16] = test system: SKBR3 (Her2+ breast cancer cells); assay: MTT cell viability assay, SKBR3; format: cell-based; conditions: Homo sapiens, SK-BR-3; SKBR3, 24 hours, tested concentration range 5-100 μM
Method: as §4, §5

[17] = test system: MDA-MB-231 (ER−, PR− and Her2− TNBC cells); assay: MTT cell viability assay, MDA-MB-231; format: cell-based; conditions: human derived TNBC cells, 24 hours
Method: as §4, §5

[18] = test system: 4T1 TNBC cells; assay: MTT cell viability assay, 4T1; format: cell-based; conditions: Mus musculus, murine derived TNBC cells 4T1, 24 hours
Method: as §4, §5

[19] = dLGG 25 mg/kg, CR-API 400 mg/kg daily o.p., Dox 5 mg/kg every 3 days i.v., Dox5+dLGG5

Structure (SMILES) | Cav-1 expression level in tumor tissues [1] | metastatic tumor nodules in lung (H&E) [2, 19] | tumor metastasis nodules in the lung tissues [2] | activation of Src (p-Src^419) in tumor tissues compared with the tumor control [3] | caspase-3 expression compared with the low dose treatments and the Dox5+dLGG5 combination [4] | cleaved caspase-3 expression in tumor tissues compared with the vehicle control [4] | COX-2 expression in liver and lung tissues [5] | Rac1 expression level in tumor tissues [6] | tumor metastasis nodules in the liver tissues [8] | phosphorylation of FAK in tumor tissues [9] | tumor volume compared with the tumor control ([10]; day 30) | further results
COc1cccc2c1C(=O)c1c(O)c3c(c(O)c1C2=O)C[C@@](O)(C(=O)CO)C[C@@H]3O[C@H]1C[C@H](N)[C@H](O)[C@H](C)O1 [Dox, doxorubicin, reference compound] | decreased significantly | not detectable | less compared with the tumor control group | much less or no effect at all | higher caspase-3 expression | increased expression of cleaved caspase-3 | further induce COX-2 expression | decreased significantly | less compared with the tumor control group | significantly inhibited | significant tumor volume reduction | loss of weight ([7]; Dox5: 5 mg/kg every 3 days i.v., day 30): 10 % of starting body weights; reduction in tumor weight ([10]; Dox5: 5 mg/kg every 3 days i.v., day 30, P<0.05): 60%
CC/C=C\C/C=C\C/C=C\CCCCCCCC(=O)OC[C@H](CO[C@@H]1O[C@H](CO)[C@H](O)[C@H](O)[C@H]1O)OC(=O)CCCCCCC/C=C\C/C=C\C/C=C\CC [dLGG, 1,2-di-O-α-linolenoyl-3-O-β-galactopyranosyl-sn-glycerol] | decreased significantly | not detectable | less compared with the tumor control group | significantly inhibited | higher caspase-3 expression | increased expression of cleaved caspase-3 | decreased in a dose-dependent manner | decreased significantly | less compared with the tumor control group | significantly inhibited | significant tumor volume reduction | metastatic tumor nodules in lung (H&E) ([2]; low dose: dLGG 5 mg/kg, CR-API 200 mg/kg daily o.p.): visible; CYP2C19 expression level in tumor tissues [11]: dose dependent effect on attenuating the expression levels; cell survival [12]: no significant change in cell survival; Ki-67 overexpression in tumor tissues [13]: attenuated; IC50 [14]: > 100 µM; weight loss ([7]; dLGG 5 and 25 mg/kg, CR-API 200 and 400 mg/kg daily o.p., given alone): No significant weight loss; COX-2 expression level in tumor tissues [15]: dose dependent effect on attenuating the expression levels; IC50 [16]: > 100 µM; IC50 [17]: 55 µM; IC50 [18]: 55 µM; survival ([10]; dLGG5: 5 mg/kg daily o.p., day 30): 100%; reduced tumor volumes compared with the tumor control group ([10]; dLGG5: 5 mg/kg daily o.p., P<0.05): 18%; survival ([10]; dLGG25: 25 mg/kg daily o.p., day 30): 100%; reduced tumor volumes compared with the tumor control group ([10]; dLGG25: 25 mg/kg daily o.p., P<0.05): 47%
